Experimental data: ChEMBL document CHEMBL1201862, “PubChem BioAssay data set” (2004)
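Where inhibition never reached the appropriate level, the endpoint shown equals the highest concentration tested. Otherwise, values were interpolated linearly from a five-concentration, 48-hour dose response in 96-well plates. GI50 is the concentration that inhibits growth by half.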 The source made the active and inactive calls. No stated cut-off is given here; in the data, active = GI50 up to about 1.1 µM and inactive = higher. Numbered stars: 1 amine (or outer) side, 2 acyl side, 3 side chain; on linkers, the order of the positions; unused ones are H or OH. Bridge positions count the residues as written; N and C are the ends. Square brackets hold non-standard residues; d marks the D form. Peptide text beside a SMILES is read from it. * marks the point of attachment. ξ: configuration not given here. X33 = O=C(C(CCCCNO[*:3])N[*:1])[*:2]; Fmoc = O=C(OCC1c2ccccc2-c2ccccc21)*; ξW = NC(Cc1c[nH]c2ccccc12)C(=O)O; ξP = O=C(O)C1CCCN1

What was measured:
Experiment in all cases: DTP human tumour cell line panel, 48 h
U-251 = system: U-251
HCT-116 = system: HCT-116
NCI-H23 = system: NCI-H23
RXF 393 = system: RXF 393
RPMI-8226 = system: RPMI-8226
UACC-257 = system: UACC-257
OVCAR-3 = system: OVCAR-3
MDA-MB-231 = system: MDA-MB-231
SW-620 = system: SW-620
SK-MEL-5 = system: SK-MEL-5
SK-MEL-28 = system: SK-MEL-28
HT-29 = system: HT-29
UO-31 = system: UO-31
SN12C = system: SN12C
SK-OV-3 = system: SK-OV-3
MDA-MB-435 = system: MDA-MB-435
MOLT-4 = system: MOLT-4
EKVX = system: EKVX
PC-3 = system: PC-3
DLD-1 = system: DLD-1

Compound	GI50 (U-251)	GI50 (HCT-116)	GI50 (NCI-H23)	GI50 (RXF 393)	GI50 (RPMI-8226)	GI50 (UACC-257)	GI50 (OVCAR-3)	GI50 (MDA-MB-231)	GI50 (SW-620)	GI50 (SK-MEL-5)	GI50 (SK-MEL-28)	GI50 (HT-29)	GI50 (UO-31)	GI50 (SN12C)	GI50 (SK-OV-3)	GI50 (MDA-MB-435)	GI50 (MOLT-4)	GI50 (EKVX)	GI50 (PC-3)	GI50 (DLD-1)
COc1ccc2nc(NCN3C(=O)c4ccccc4C3=O)sc2c1	> 100 µM (inactive)	> 100 µM (inactive)	> 100 µM (inactive)	> 100 µM (inactive)	> 100 µM (inactive)	> 100 µM (inactive)	> 100 µM (inactive)	> 100 µM (inactive)	> 100 µM (inactive)	> 100 µM (inactive)	> 100 µM (inactive)	> 100 µM (inactive)	> 100 µM (inactive)	> 100 µM (inactive)	> 100 µM (inactive)	> 100 µM (inactive)	> 100 µM (inactive)	> 100 µM (inactive)	> 100 µM (inactive)	–
O=C(O)C(Cc1ccc(O)c([N+](=O)[O-])c1)N1C(=O)c2ccccc2C1=O (stereo unspecified)	> 100 µM (inactive)	> 100 µM (inactive)	> 100 µM (inactive)	> 100 µM (inactive)	> 100 µM (inactive)	> 100 µM (inactive)	> 100 µM (inactive)	> 100 µM (inactive)	> 100 µM (inactive)	> 100 µM (inactive)	> 100 µM (inactive)	> 100 µM (inactive)	> 100 µM (inactive)	> 100 µM (inactive)	> 100 µM (inactive)	> 100 µM (inactive)	> 100 µM (inactive)	> 100 µM (inactive)	> 100 µM (inactive)	–
C/C1=C/C(C)CC(C)OC(=O)C(C)NC(=O)C(Cc2ccc(O)c(I)c2)N(C)C(=O)CNC(=O)C(C)C1 (stereo unspecified)	< 0.01 µM (active)	< 0.01 µM (active)	0.409 µM (active)	< 0.01 µM (active)	< 0.01 µM (active)	< 0.01 µM (active)	< 0.01 µM (active)	< 0.01 µM (active)	< 0.01 µM (active)	< 0.01 µM (active)	0.105 µM (active)	< 0.01 µM (active)	< 0.0109 µM (active)	0.0342 µM (active)	< 0.01 µM (active)	< 0.01 µM (active)	< 0.0178 µM (active)	0.0443 µM (active)	< 0.01 µM (active)	–
C=C(C)C1CC=C(C)C2(C1)OCC(C)(C)C(C)O2 (stereo unspecified)	16.7 µM (inactive)	16.3 µM (inactive)	20.7 µM (inactive)	13.7 µM (inactive)	17.9 µM (inactive)	21.1 µM (inactive)	16.1 µM (inactive)	21.7 µM (inactive)	19.1 µM (inactive)	15.2 µM (inactive)	24 µM (inactive)	15.5 µM (inactive)	20.3 µM (inactive)	18.2 µM (inactive)	23.4 µM (inactive)	21.3 µM (inactive)	20.1 µM (inactive)	24.7 µM (inactive)	30.1 µM (inactive)	–
Cc1ccc(NC(=O)CC/C(CC(=O)C(C)(C)C)=N\Nc2ccc([N+](=O)[O-])cc2[N+](=O)[O-])cc1C	58.1 µM (inactive)	50.5 µM (inactive)	46.2 µM (inactive)	67.5 µM (inactive)	–	> 100 µM (inactive)	0.0195 µM (active)	–	46.3 µM (inactive)	–	> 100 µM (inactive)	57 µM (inactive)	53.2 µM (inactive)	–	> 100 µM (inactive)	–	28.8 µM (inactive)	> 100 µM (inactive)	–	47.6 µM (inactive)
COC(=O)C1Cc2cccc(C)c2C1 (stereo unspecified)	89.3 µM (inactive)	> 100 µM (inactive)	> 100 µM (inactive)	> 100 µM (inactive)	93.5 µM (inactive)	> 100 µM (inactive)	> 100 µM (inactive)	> 100 µM (inactive)	> 100 µM (inactive)	> 100 µM (inactive)	> 100 µM (inactive)	> 100 µM (inactive)	> 100 µM (inactive)	> 100 µM (inactive)	> 100 µM (inactive)	> 100 µM (inactive)	46.6 µM (inactive)	> 100 µM (inactive)	> 100 µM (inactive)	–
CCCC(=O)OCC1OC(n2cc(F)c(=O)[nH]c2=O)CC1O (stereo unspecified)	1.79 µM (inactive)	0.614 µM (active)	0.127 µM (active)	> 10 µM (inactive)	0.429 µM (active)	4.1 µM (inactive)	> 2.11 µM (inactive)	> 9.14 µM (inactive)	> 10 µM (inactive)	0.221 µM (active)	> 6.78 µM (inactive)	0.721 µM (active)	0.094 µM (active)	0.181 µM (active)	> 4.14 µM (inactive)	> 7.98 µM (inactive)	> 8.55 µM (inactive)	> 10 µM (inactive)	0.746 µM (active)	–
O=C(N/N=C/c1ccc([N+](=O)[O-])cc1)Nc1ccc(C(=O)O)cc1	28.2 µM (inactive)	22.3 µM (inactive)	23.2 µM (inactive)	26.1 µM (inactive)	18.7 µM (inactive)	28.4 µM (inactive)	4.54 µM (inactive)	28.6 µM (inactive)	40.9 µM (inactive)	16.3 µM (inactive)	41.7 µM (inactive)	23.8 µM (inactive)	22.1 µM (inactive)	29.9 µM (inactive)	21.3 µM (inactive)	29 µM (inactive)	22.9 µM (inactive)	23.1 µM (inactive)	32.1 µM (inactive)	–
CCOC(=O)N/N=C(\CC)NO	> 100 µM (inactive)	> 100 µM (inactive)	> 100 µM (inactive)	> 100 µM (inactive)	> 100 µM (inactive)	> 100 µM (inactive)	> 100 µM (inactive)	> 100 µM (inactive)	> 100 µM (inactive)	> 100 µM (inactive)	> 100 µM (inactive)	> 100 µM (inactive)	> 100 µM (inactive)	> 100 µM (inactive)	> 100 µM (inactive)	> 100 µM (inactive)	> 100 µM (inactive)	> 100 µM (inactive)	> 100 µM (inactive)	–
O=[N+]([O-])C(=C(Sc1ccccc1)Sc1ccccc1)C(Cl)=C(Cl)Cl	1.53 µM (inactive)	0.0597 µM (active)	1.24 µM (inactive)	0.413 µM (active)	0.0292 µM (active)	0.323 µM (active)	0.373 µM (active)	0.188 µM (active)	< 0.0391 µM (active)	1.69 µM (inactive)	0.427 µM (active)	0.123 µM (active)	0.171 µM (active)	0.65 µM (active)	10.1 µM (inactive)	0.334 µM (active)	0.051 µM (active)	2.05 µM (inactive)	2.26 µM (inactive)	–
O=C1Nc2cccc3cc(NCC(O)CCl)cc1c23 (stereo unspecified)	32.9 µM (inactive)	33.7 µM (inactive)	> 100 µM (inactive)	76.9 µM (inactive)	> 100 µM (inactive)	> 100 µM (inactive)	51.4 µM (inactive)	> 100 µM (inactive)	40.5 µM (inactive)	49.8 µM (inactive)	> 100 µM (inactive)	58.7 µM (inactive)	31.3 µM (inactive)	41.8 µM (inactive)	28.6 µM (inactive)	54.2 µM (inactive)	22.8 µM (inactive)	32.5 µM (inactive)	38.8 µM (inactive)	–
C/C=C/[C@H]1O[C@@](O)([C@@H](C)[C@H](O)[C@H](C)[C@H]2OC(=O)/C(OC)=C/C(C)=C/[C@@H](C)[C@@H](O)[C@@H](CC)[C@@H](O)[C@H](C)C/C(C)=C/C=C/[C@@H]2OC)C[C@H](OC2CC(O)C(O)C(C)O2)[C@@H]1C (stereo partly specified)	< 0.0075 µM (active)	< 0.0075 µM (active)	0.406 µM (active)	0.121 µM (active)	< 0.0075 µM (active)	< 0.0075 µM (active)	< 0.0075 µM (active)	< 0.0075 µM (active)	< 0.0075 µM (active)	< 0.0075 µM (active)	0.114 µM (active)	< 0.0075 µM (active)	< 0.0075 µM (active)	7.78 µM (inactive)	8.04 µM (inactive)	< 0.0075 µM (active)	< 0.0075 µM (active)	< 0.0075 µM (active)	< 0.0075 µM (active)	–
O=C1C(Br)=CC2(C=C1Br)CCNC1=C2C(=O)c2cccnc2C1=O	17.6 µM (inactive)	13.1 µM (inactive)	4.07 µM (inactive)	4.92 µM (inactive)	8.93 µM (inactive)	8.36 µM (inactive)	6.01 µM (inactive)	14.1 µM (inactive)	11.5 µM (inactive)	3.77 µM (inactive)	14.2 µM (inactive)	18.2 µM (inactive)	17.5 µM (inactive)	12.5 µM (inactive)	16.9 µM (inactive)	1.89 µM (inactive)	5.69 µM (inactive)	15 µM (inactive)	13.4 µM (inactive)	–
NC(=O)CNC(=O)C1CCCN1C(=O)C1CCCCNOC(=O)CC[C@@H](NC(=O)OCC2c3ccccc3-c3ccccc32)C(=O)NC(Cc2c[nH]c3ccccc23)C(=O)N1 (stereo partly specified) (Fmoc-[dE][ξW][X33][ξP]G-NH2; ester 1-3)	> 100 µM (inactive)	> 100 µM (inactive)	> 100 µM (inactive)	> 100 µM (inactive)	> 100 µM (inactive)	> 100 µM (inactive)	> 100 µM (inactive)	30.6 µM (inactive)	> 100 µM (inactive)	> 100 µM (inactive)	> 100 µM (inactive)	> 100 µM (inactive)	20.7 µM (inactive)	> 100 µM (inactive)	> 100 µM (inactive)	> 100 µM (inactive)	> 100 µM (inactive)	> 100 µM (inactive)	> 100 µM (inactive)	–
